Laboratory results taken from PubChem BioAssay (NCI).
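The compound was tested at five concentrations on cells cultured in 96-well plates, with a 48-hour exposure period. The concentration for 50% growth inhibition is given as GI50. The concentration for full growth arrest is given as TGI.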

Legend:
Assay in all cases: NCI anticancer screen, dose series, 48 h
[1] = tested on: SNB-75 CNS
[2] = tested on: MALME-3M melanoma
[3] = tested on: K-562 leukemia
[4] = tested on: A549 NSCLC
[5] = tested on: RXF 393 renal
[6] = tested on: MDA-MB-231 breast
[7] = tested on: M14 melanoma
[8] = tested on: COLO 205 colon
[9] = tested on: HOP-92 NSCLC
[10] = tested on: 786-0 renal
[11] = tested on: LOX IMVI melanoma
[12] = tested on: OVCAR-5 ovarian
[13] = tested on: SW-620 colon
[14] = tested on: MOLT-4 leukemia
[15] = tested on: SK-MEL-2 melanoma
[16] = tested on: CCRF-CEM leukemia
[17] = tested on: SK-MEL-5 melanoma
[18] = tested on: UACC-62 melanoma
[19] = tested on: UO-31 renal
[20] = tested on: KM12 colon
[21] = tested on: A498 renal
[22] = tested on: SR leukemia
[23] = tested on: SF-539 CNS
[24] = tested on: IGROV1 ovarian
[25] = tested on: NCI-H23 lung
[26] = tested on: RPMI-8226 leukemia
[27] = tested on: UACC-257 melanoma
[28] = tested on: NCI-H522 lung
[29] = tested on: HOP-62 NSCLC
[30] = tested on: OVCAR-4 ovarian
[31] = tested on: NCI-H460 lung
[32] = tested on: ACHN renal
[33] = tested on: SF-268 CNS
[34] = tested on: NCI/ADR-RES ovarian
[35] = tested on: TK-10 renal
[36] = tested on: MCF7 breast
[37] = tested on: SN12C renal
[38] = tested on: SF-295 CNS
[39] = tested on: PC-3 prostate
[40] = tested on: HCT-15 colon
[41] = tested on: SNB-19 CNS
[42] = tested on: HCT-116 colon
[43] = tested on: NCI-H226 lung
[44] = tested on: SK-MEL-28 melanoma
[45] = tested on: HT29 colon
[46] = tested on: DU-145 prostate
[47] = tested on: SK-OV-3 ovarian
[48] = tested on: T-47D breast
[49] = tested on: OVCAR-8 ovarian
[50] = tested on: HL-60(TB) leukemia
[51] = tested on: OVCAR-3 ovarian
[52] = tested on: EKVX NSCLC
[53] = tested on: MDA-MB-435
[54] = tested on: BT-549 breast
[55] = tested on: U251 CNS
[56] = tested on: HS 578T breast
[57] = tested on: HCC-2998 colon
[58] = tested on: CAKI-1 renal

COc1ccc(-c2nn(-c3cccc(Cl)c3)cc2-c2cc(-c3cccs3)no2)cc1
GI50 [1]: 3.52 µM | TGI [1]: 34.7 µM | GI50 [2]: 2.6 µM | TGI [2]: 10.6 µM | GI50 [3]: 3.43 µM | TGI [3]: > 100 µM | GI50 [4]: 3.56 µM | TGI [4]: 24.5 µM | GI50 [5]: 3.49 µM | TGI [5]: 20.1 µM | GI50 [6]: 3.08 µM | TGI [6]: 16.9 µM | GI50 [7]: 3.3 µM | TGI [7]: 17.1 µM | GI50 [8]: 3.21 µM | TGI [8]: 7.24 µM | GI50 [9]: 1.61 µM | TGI [9]: 8.13 µM | GI50 [10]: 3.39 µM | TGI [10]: > 100 µM | GI50 [11]: 3.04 µM | TGI [11]: 10.9 µM | GI50 [12]: 7.63 µM | TGI [12]: 74.1 µM | GI50 [13]: 4.35 µM | TGI [13]: 22.6 µM | GI50 [14]: 2.96 µM | TGI [14]: 19.5 µM | GI50 [15]: 3.34 µM | TGI [15]: 10.9 µM | GI50 [16]: 3.84 µM | TGI [16]: > 100 µM | GI50 [17]: 4.74 µM | TGI [17]: 17.3 µM | GI50 [18]: 3.55 µM | TGI [18]: 20 µM | GI50 [19]: 2.56 µM | TGI [19]: 11.8 µM | GI50 [20]: 2.98 µM | TGI [20]: 11.1 µM | GI50 [21]: 1.81 µM | TGI [21]: 14.6 µM | GI50 [22]: 3.03 µM | TGI [22]: 12.1 µM | GI50 [23]: 7.47 µM | TGI [23]: 36.6 µM | GI50 [24]: 4 µM | TGI [24]: 16.2 µM | GI50 [25]: 3.82 µM | TGI [25]: 20.8 µM | GI50 [26]: 5.33 µM | TGI [26]: 61.9 µM | GI50 [27]: 3.07 µM | TGI [27]: 15.1 µM | GI50 [28]: 4.27 µM | TGI [28]: 18.4 µM | GI50 [29]: 13.9 µM | TGI [29]: 28.1 µM | GI50 [30]: 4.48 µM | TGI [30]: 36.4 µM | GI50 [31]: 3.42 µM | TGI [31]: 16.6 µM | GI50 [32]: 4.39 µM | TGI [32]: > 100 µM | GI50 [33]: 4.94 µM | TGI [33]: 47.1 µM | GI50 [34]: 4.01 µM | TGI [34]: 38.1 µM | GI50 [35]: 5.21 µM | TGI [35]: 43.8 µM | GI50 [36]: 3.53 µM | TGI [36]: 16.9 µM | GI50 [37]: 3.48 µM | TGI [37]: 18.7 µM | GI50 [38]: 2.7 µM | TGI [38]: 13.2 µM | GI50 [39]: 3.2 µM | TGI [39]: 36.9 µM | GI50 [40]: 4.48 µM | TGI [40]: 32.9 µM | GI50 [41]: 6.09 µM | TGI [41]: > 100 µM | GI50 [42]: 3.03 µM | TGI [42]: 12.7 µM | GI50 [43]: 4.11 µM | TGI [43]: 30.3 µM | GI50 [44]: 4.93 µM | TGI [44]: 17.8 µM | GI50 [45]: 3.85 µM | TGI [45]: 15.1 µM | GI50 [46]: 7.08 µM | TGI [46]: 35.8 µM | GI50 [47]: 8.89 µM | TGI [47]: 44.1 µM | GI50 [48]: 3.86 µM | TGI [48]: 25.3 µM | GI50 [49]: 4.04 µM | TGI [49]: 36 µM | GI50 [50]: 4.73 µM | TGI [50]: 38.3 µM | GI50 [51]: 5.07 µM | TGI [51]: 25 µM | GI50 [52]: 2.07 µM | TGI [52]: 13.5 µM | GI50 [53]: 3.26 µM | TGI [53]: 17.3 µM | GI50 [54]: 4.99 µM | TGI [54]: 21.3 µM | GI50 [55]: 3.61 µM | TGI [55]: 15.4 µM | GI50 [56]: 4.42 µM | TGI [56]: 45.5 µM | GI50 [57]: 3.47 µM | TGI [57]: 14.6 µM | GI50 [58]: 2.05 µM | TGI [58]: 6.02 µM
